According to patent US9708314B2, “Heterocyclic amide compound” (NISSAN CHEMICAL INDUSTRIES, LTD., priority 2013, dated 2017):

Key:
Format in all cases: in vivo
[1] = system: transplanted Oryza sativa; assay: Test Example 1: effect on crop, application before weed generation in submerged conditions; conditions: Application herbicide amount 320 g/ha; Seventeenth Table
Procedure, shortened: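 Pre-emergence water-surface application under 4 cm flooding, same day as sowing, with rice transplanted at 2.5 leaf stage. Dose given as g/ha. Plants grown at 25° C. to 30° C. and rated three weeks later on a 0 (≤5%) to 5 (≥90%) herbicidal-ratio scale.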

[2] = system: Beta vulgaris ssp. vulgaris; assay: Test Example 4: effect on crop by application to foliage (diluvial soil, plastic box); conditions: Application herbicide amount 320 g/ha; foliage application
Procedure, shortened: (§1)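 Seeds sown in sterilized diluvial soil, covered ~1.5 cm, grown 14 days in greenhouse at 25° C. to 30° C. Emulsion formulation diluted in water to set rate (g/ha) and sprayed onto stems and leaves. Effect scored visually 3 weeks later on 0–5 scale (5 = ≥90% herbicidal ratio, 0 = ≤5%).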

Glycine max = assay: as above; conditions: Application herbicide amount 320 g/ha; foliage application
Procedure, shortened: as §1

Triticum aestivum = assay: as above; conditions: Application herbicide amount 320 g/ha; foliage application
Procedure, shortened: as §1

Brassica campestris L. = assay: as above; conditions: Application herbicide amount 320 g/ha; foliage application
Procedure, shortened: as §1

[3] = system: directly sowed Oryza sativa; assay: as above; conditions: Application herbicide amount 320 g/ha; foliage application
Procedure, shortened: as §1

Zea mays = assay: as above; conditions: Application herbicide amount 320 g/ha; foliage application
Procedure, shortened: as §1

Amaranthus retroflexus = assay: Test Example 4: herbicidal effect by application to foliage (diluvial soil, plastic box); conditions: Application herbicide amount 320 g/ha; foliage application
Procedure, shortened: as §1

Setaria viridis = assay: as above; conditions: Application herbicide amount 320 g/ha; foliage application
Procedure, shortened: as §1

[4] = system: Echinochloa crus-galli var. crus-galli; assay: as above; conditions: Application herbicide amount 320 g/ha; foliage application
Procedure, shortened: as §1

Stellaria media = assay: as above; conditions: Application herbicide amount 320 g/ha; foliage application
Procedure, shortened: as §1

Veronica persica = assay: as above; conditions: Application herbicide amount 320 g/ha; foliage application
Procedure, shortened: as §1

Avena fatua = assay: as above; conditions: Application herbicide amount 320 g/ha; foliage application
Procedure, shortened: as §1

Abutilon theophrasti = assay: as above; conditions: Application herbicide amount 320 g/ha; foliage application
Procedure, shortened: as §1

Galium spurium = assay: as above; conditions: Application herbicide amount 320 g/ha; foliage application
Procedure, shortened: as §1

Digitaria ciliaris = assay: as above; conditions: Application herbicide amount 320 g/ha; foliage application
Procedure, shortened: as §1

Chenopodium album = assay: as above; conditions: Application herbicide amount 320 g/ha; foliage application
Procedure, shortened: as §1

Lolium multiflorum Lam. = assay: as above; conditions: Application herbicide amount 320 g/ha; foliage application
Procedure, shortened: as §1

Alopecurus myosuroides = assay: as above; conditions: Application herbicide amount 320 g/ha; foliage application
Procedure, shortened: as §1

Apera spica-venti. = assay: as above; conditions: Application herbicide amount 320 g/ha; foliage application
Procedure, shortened: as §1

Row | Structure (SMILES) | a: transplanted Oryza sativa (effect on crop grade) [1] | f (Beta vulgaris ssp. vulgaris) effect on crop grade [2] | d (Glycine max) effect on crop grade (Glycine max) | e (Triticum aestivum) effect on crop grade (Triticum aestivum) | g (Brassica campestris L.) effect on crop grade (Brassica campestris L.) | b (directly sowed Oryza sativa) effect on crop grade [3] | c (Zea mays) effect on crop grade (Zea mays) | N (Amaranthus retroflexus) herbicidal effect grade (Amaranthus retroflexus) | G (Setaria viridis) herbicidal effect grade (Setaria viridis) | H (Echinochloa crus-galli var. crus-galli) herbicidal effect grade [4] | P (Stellaria media) herbicidal effect grade (Stellaria media) | R (Veronica persica) herbicidal effect grade (Veronica persica) | I (Avena fatua) herbicidal effect grade (Avena fatua) | M (Abutilon theophrasti) herbicidal effect grade (Abutilon theophrasti) | Q (Galium spurium) herbicidal effect grade (Galium spurium) | F (Digitaria ciliaris) herbicidal effect grade (Digitaria ciliaris) | O (Chenopodium album) herbicidal effect grade (Chenopodium album) | K (Lolium multiflorum Lam.) herbicidal effect grade (Lolium multiflorum Lam.) | J (Alopecurus myosuroides) herbicidal effect grade (Alopecurus myosuroides) | L (Apera spica-venti.) herbicidal effect grade (Apera spica-venti.)
1 | COCCN(C)c1nnc2c(C(=O)Nc3nnco3)ccc(C(F)(F)F)n12 [1-121] | 3 (Herbicidal ratio of 40% or more and less than 70%) | 5 (Herbicidal ratio of 90% or more (almost completely withered)) | 4 (Herbicidal ratio of 70% or more and less than 90%) | 3 (Herbicidal ratio of 40% or more and less than 70%) | 5 (Herbicidal ratio of 90% or more (almost completely withered)) | 2 (Herbicidal ratio of 20% or more and less than 40%) | 2 (Herbicidal ratio of 20% or more and less than 40%) | 5 (Herbicidal ratio of 90% or more (almost completely withered)) | 4 (Herbicidal ratio of 70% or more and less than 90%) | 5 (Herbicidal ratio of 90% or more (almost completely withered)) | 5 (Herbicidal ratio of 90% or more (almost completely withered)) | 5 (Herbicidal ratio of 90% or more (almost completely withered)) | 3 (Herbicidal ratio of 40% or more and less than 70%) | 4 (Herbicidal ratio of 70% or more and less than 90%) | 3 (Herbicidal ratio of 40% or more and less than 70%) | 5 (Herbicidal ratio of 90% or more (almost completely withered)) | 5 (Herbicidal ratio of 90% or more (almost completely withered)) | 3 (Herbicidal ratio of 40% or more and less than 70%) | 3 (Herbicidal ratio of 40% or more and less than 70%) | 3 (Herbicidal ratio of 40% or more and less than 70%)
2 | O=C(Nc1nnco1)c1ccc(C(F)(F)F)n2c(C3CC3)nnc12 [1-144] | 1 (Herbicidal ratio of 5% or more and less than 20%) | 5 (Herbicidal ratio of 90% or more (almost completely withered)) | 4 (Herbicidal ratio of 70% or more and less than 90%) | 1 (Herbicidal ratio of 5% or more and less than 20%) | 4 (Herbicidal ratio of 70% or more and less than 90%) | 0 (Herbicidal ratio of 5% or less (almost no effect)) | 0 (Herbicidal ratio of 5% or less (almost no effect)) | 4 (Herbicidal ratio of 70% or more and less than 90%) | 2 (Herbicidal ratio of 20% or more and less than 40%) | 5 (Herbicidal ratio of 90% or more (almost completely withered)) | 5 (Herbicidal ratio of 90% or more (almost completely withered)) | 4 (Herbicidal ratio of 70% or more and less than 90%) | 2 (Herbicidal ratio of 20% or more and less than 40%) | 2 (Herbicidal ratio of 20% or more and less than 40%) | 3 (Herbicidal ratio of 40% or more and less than 70%) | 3 (Herbicidal ratio of 40% or more and less than 70%) | 5 (Herbicidal ratio of 90% or more (almost completely withered)) | 1 (Herbicidal ratio of 5% or more and less than 20%) | 1 (Herbicidal ratio of 5% or more and less than 20%) | 0 (Herbicidal ratio of 5% or less (almost no effect))
3 | CCC(CC)c1nnc2c(C(=O)Nc3nnco3)ccc(C(F)(F)F)n12 [1-145] | 4 (Herbicidal ratio of 70% or more and less than 90%) | 5 (Herbicidal ratio of 90% or more (almost completely withered)) | 3 (Herbicidal ratio of 40% or more and less than 70%) | 2 (Herbicidal ratio of 20% or more and less than 40%) | 3 (Herbicidal ratio of 40% or more and less than 70%) | 3 (Herbicidal ratio of 40% or more and less than 70%) | 0 (Herbicidal ratio of 5% or less (almost no effect)) | 4 (Herbicidal ratio of 70% or more and less than 90%) | 4 (Herbicidal ratio of 70% or more and less than 90%) | 5 (Herbicidal ratio of 90% or more (almost completely withered)) | 5 (Herbicidal ratio of 90% or more (almost completely withered)) | 5 (Herbicidal ratio of 90% or more (almost completely withered)) | 3 (Herbicidal ratio of 40% or more and less than 70%) | 3 (Herbicidal ratio of 40% or more and less than 70%) | 1 (Herbicidal ratio of 5% or more and less than 20%) | 5 (Herbicidal ratio of 90% or more (almost completely withered)) | 5 (Herbicidal ratio of 90% or more (almost completely withered)) | 2 (Herbicidal ratio of 20% or more and less than 40%) | 1 (Herbicidal ratio of 5% or more and less than 20%) | 3 (Herbicidal ratio of 40% or more and less than 70%)
4 | CSCc1nnc2c(C(=O)Nc3nnco3)ccc(C(F)(F)F)n12 [1-146] | 3 (Herbicidal ratio of 40% or more and less than 70%) | 5 (Herbicidal ratio of 90% or more (almost completely withered)) | 5 (Herbicidal ratio of 90% or more (almost completely withered)) | 3 (Herbicidal ratio of 40% or more and less than 70%) | 5 (Herbicidal ratio of 90% or more (almost completely withered)) | 5 (Herbicidal ratio of 90% or more (almost completely withered)) | 0 (Herbicidal ratio of 5% or less (almost no effect)) | 5 (Herbicidal ratio of 90% or more (almost completely withered)) | 5 (Herbicidal ratio of 90% or more (almost completely withered)) | 5 (Herbicidal ratio of 90% or more (almost completely withered)) | 5 (Herbicidal ratio of 90% or more (almost completely withered)) | 5 (Herbicidal ratio of 90% or more (almost completely withered)) | 4 (Herbicidal ratio of 70% or more and less than 90%) | 4 (Herbicidal ratio of 70% or more and less than 90%) | 5 (Herbicidal ratio of 90% or more (almost completely withered)) | 5 (Herbicidal ratio of 90% or more (almost completely withered)) | 5 (Herbicidal ratio of 90% or more (almost completely withered)) | 4 (Herbicidal ratio of 70% or more and less than 90%) | 2 (Herbicidal ratio of 20% or more and less than 40%) | 4 (Herbicidal ratio of 70% or more and less than 90%)
